The record followed here is PubChem BioAssay AID1259407 (Chemical Carcinogenesis Research Information System (CCRIS), 2018).

The series has as its system CCRIS mutagenicity, Ames/micronucleus/aberration tests. The experiment in a line: CCRIS mutagenicity studies.
The mark [1] stands for this setting: Test System: Ames Salmonella typhimurium, Strain/Indicator: TA98, Metabolic Activation: None, Method: Preincubation.
[2] abbreviates: Test System: Ames Salmonella typhimurium, Strain/Indicator: TA100, Metabolic Activation: None, Method: Preincubation.
The mark [3] stands for this setting: Test System: Ames Salmonella typhimurium, Strain/Indicator: TA1535, Metabolic Activation: None, Method: Preincubation.
The mark [4] stands for this setting: Test System: Ames Salmonella typhimurium, Strain/Indicator: TA1537, Metabolic Activation: None, Method: Preincubation.
Where [5] appears, read: Test System: E. coli, Strain/Indicator: WP2uvrA/pKM101, Metabolic Activation: None, Method: Preincubation.
The mark [6] stands for this setting: Test System: AMES SALMONELLA TYPHIMURIUM, Strain/Indicator: TA98, Metabolic Activation: NONE, Method: STANDARD PLATE.
Setting [7] is: Test System: AMES SALMONELLA TYPHIMURIUM, Strain/Indicator: TA100, Metabolic Activation: NONE, Method: STANDARD PLATE.

Activity calls are given as the source filed them. The rule behind the calls is not given here.

Regarding `C=CC(=O)OCCO`, the mutagenic call (End Point: In vitro chromosomal aberrations, Test System: Chinese hamster lung (CHL/IU) cells, Metabolic Activation: Rat, Liver, S9, Phenobarbital and 5,6-benzoflavone) was “active; positive (structural changes and ploidy)”; the mutagenic call (Test System: AMES SALMONELLA TYPHIMURIUM, Strain/Indicator: TA102, Metabolic Activation: RAT, LIVER, S-9, PHENOBARBITAL AND 5,6-BENZOFLAVONE, Method: STANDARD PLATE) is “inactive; negative”; the mutagenic call (Test System: AMES SALMONELLA TYPHIMURIUM, Strain/Indicator: TA2638, Metabolic Activation: RAT, LIVER, S-9, PHENOBARBITAL AND 5,6-BENZOFLAVONE, Method: STANDARD PLATE) was “inactive; negative”; the mutagenic call under setting [1] was “inactive; negative”; the mutagenic call (Test System: Ames Salmonella typhimurium, Strain/Indicator: TA98, Metabolic Activation: Rat, Liver, S9, Sodium phenobarbital and 5,6-benzoflavone (10%), Method: Preincubation) was “inactive; negative”; the mutagenic call under setting [2] is “inactive; negative”. Besides, the mutagenic call (Test System: Ames Salmonella typhimurium, Strain/Indicator: TA100, Metabolic Activation: Rat, Liver, S9, Sodium phenobarbital and 5,6-benzoflavone (10%), Method: Preincubation) was “inactive; negative”; the mutagenic call under setting [3] was “inactive; negative”; the mutagenic call (Test System: Ames Salmonella typhimurium, Strain/Indicator: TA1535, Metabolic Activation: Rat, Liver, S9, Sodium phenobarbital and 5,6-benzoflavone (10%), Method: Preincubation) was “inactive; negative”; the mutagenic call under setting [4] was “inactive; negative”; the mutagenic call (Test System: Ames Salmonella typhimurium, Strain/Indicator: TA1537, Metabolic Activation: Rat, Liver, S9, Sodium phenobarbital and 5,6-benzoflavone (10%), Method: Preincubation) was “inactive; negative”; the mutagenic call (Test System: E. COLI, Strain/Indicator: WP2 (PKM101), Metabolic Activation: RAT, LIVER, S-9, PHENOBARBITAL AND 5,6-BENZOFLAVONE, Method: STANDARD PLATE) was “active; positive”. For the same compound, the mutagenic call is, setting by setting: (Test System: E. COLI, Strain/Indicator: WP2 UVRA (PKM101), Metabolic Activation: RAT, LIVER, S-9, PHENOBARBITAL AND 5,6-BENZOFLAVONE, Method: STANDARD PLATE) “active; positive”; under setting [5], “active; positive”; (Test System: MOUSE LYMPHOMA, Strain/Indicator: L5178Y (TK+/TK-), Metabolic Activation: NONE, Method: SUSPENSION/PLATE) “active; positive”.
As for `CC(Cl)C(Br)CBr` (stereo not given), the mutagenic call is “active; positive” (Test System: AMES SALMONELLA TYPHIMURIUM, Strain/Indicator: TA100, Metabolic Activation: RAT, LIVER, MICROSOMES, PHENOBARBITAL, Method: PREINCUBATION) and “active; positive” (Test System: AMES SALMONELLA TYPHIMURIUM, Strain/Indicator: TA100, Metabolic Activation: RAT, LIVER, MICROSOMES, Method: PREINCUBATION).
Turning to `O=C(/C=C/c1ccc([N+](=O)[O-])cc1)c1ccc([N+](=O)[O-])cc1`, the mutagenic call is “active; positive” under setting [6]; “inactive; negative” (Test System: AMES SALMONELLA TYPHIMURIUM, Strain/Indicator: TA98, Metabolic Activation: RAT, LIVER, S-9, AROCLOR 1254, Method: STANDARD PLATE); “inactive; negative” under setting [7]; “inactive; negative” (Test System: AMES SALMONELLA TYPHIMURIUM, Strain/Indicator: TA100, Metabolic Activation: RAT, LIVER, S-9, AROCLOR 1254, Method: STANDARD PLATE).
With `Clc1ccc(CC2CO2)cc1` (stereo not given), the mutagenic call by setting is: (Test System: AMES SALMONELLA TYPHIMURIUM, Strain/Indicator: TA100, Metabolic Activation: NONE, Method: PREINCUBATION) “active; positive”; under setting [7], “active; positive”; (Test System: AMES SALMONELLA TYPHIMURIUM, Strain/Indicator: TA1535, Metabolic Activation: NONE, Method: PREINCUBATION) “active; positive”; (Test System: AMES SALMONELLA TYPHIMURIUM, Strain/Indicator: TA1535, Metabolic Activation: NONE, Method: STANDARD PLATE) “active; positive”.
As to `CC(=O)OCC(COC(C)=O)OC(C)=O`, the mutagenic call is “inactive; negative” under setting [1]; “inactive; negative” (Test System: Ames Salmonella typhimurium, Strain/Indicator: TA98, Metabolic Activation: Rat, Liver, S9, Sodium phenobarbital and 5,6-benzoflavone, Method: Preincubation); “inactive; negative” under setting [2]; “inactive; negative” (Test System: Ames Salmonella typhimurium, Strain/Indicator: TA100, Metabolic Activation: Rat, Liver, S9, Sodium phenobarbital and 5,6-benzoflavone, Method: Preincubation); “inactive; negative” under setting [3]; “inactive; negative” (Test System: Ames Salmonella typhimurium, Strain/Indicator: TA1535, Metabolic Activation: Rat, Liver, S9, Sodium phenobarbital and 5,6-benzoflavone, Method: Preincubation). Also, the mutagenic call by setting is: under setting [4], “inactive; negative”; (Test System: Ames Salmonella typhimurium, Strain/Indicator: TA1537, Metabolic Activation: Rat, Liver, S9, Sodium phenobarbital and 5,6-benzoflavone, Method: Preincubation) “inactive; negative”; under setting [5], “inactive; negative”; (Test System: E. coli, Strain/Indicator: WP2uvrA/pKM101, Metabolic Activation: Rat, Liver, S9, Sodium phenobarbital and 5,6-benzoflavone, Method: Preincubation) “inactive; negative”.
On to `Cn1c(N)nc2ccc(C#N)cc21`, for which the mutagenic call (Test System: AMES SALMONELLA TYPHIMURIUM, Strain/Indicator: TA98, Metabolic Activation: RAT, LIVER, S-9, AROCLOR 1254, Method: PREINCUBATION) was “active; positive”.
As to `CNC(=O)Oc1cccc2c1OC(C)(C)O2`, the mutagenic call by setting is: (End Point: IN VIVO MICRONUCLEUS, Test System: BONE MARROW POLYCHROMATIC ERYTHROCYTES, Species: RABBIT, Strain/Sex: HYBRID HYLA/MALE, FEMALE, Route: ORAL (GAVAGE)) “inactive; negative”; (End Point: In vitro Chromosomal aberrations, Test System: Human lymphocytes, Metabolic Activation: Activation by unspecified source) “active; positive”; (End Point: In vitro Chromosomal aberrations, Test System: Human lymphocytes, Metabolic Activation: None) “inactive; negative”.
As to `Nc1cccc2cccc(N)c12`, the mutagenic call was “inactive; negative” (Test System: AMES SALMONELLA TYPHIMURIUM, Strain/Indicator: TA98, Metabolic Activation: RAT LIVER, CYTOSOL, AROCLOR 1254, Method: STANDARD PLATE) and “active; positive” (Test System: AMES SALMONELLA TYPHIMURIUM, Strain/Indicator: TA98, Metabolic Activation: RAT LIVER, MICROSOMES, AROCLOR 1254, Method: STANDARD PLATE).
For `C[C@@H]1CC[C@@]2(OC1)O[C@H]1CC3[C@@H]4CC=C5C[C@@H](O[C@@H]6O[C@H](CO)[C@@H](O[C@@H]7O[C@@H](C)[C@H](O)[C@@H](O)[C@H]7O)[C@H](O)[C@H]6O[C@@H]6O[C@@H](C)[C@H](O)[C@@H](O)[C@H]6O)CC[C@]5(C)[C@H]4CC[C@]3(C)[C@H]1[C@@H]2C` (stereo not given in full), the mutagenic call runs as follows: under setting [6], “inactive; negative”; (Test System: AMES SALMONELLA TYPHIMURIUM, Strain/Indicator: TA98, Metabolic Activation: RAT, LIVER, S-9, PHENOBARBITAL, Method: STANDARD PLATE) “inactive; negative”; under setting [7], “inactive; negative”; (Test System: AMES SALMONELLA TYPHIMURIUM, Strain/Indicator: TA100, Metabolic Activation: RAT, LIVER, S-9, PHENOBARBITAL, Method: STANDARD PLATE) “inactive; negative”.
